From patent US20110183889A1, “SALICYLANILIDE MODIFIED PEPTIDES FOR USE AS ORAL THERAPEUTICS” (The Regents of the University of California, priority 2007, published 2011)

Columns and labels:
[1] = tested on: LDL-induced monocyte chemotactic activity in cultures of human aortic endothelial cells; test: HDL-inflammatory index: HDL from treated apoE null mice tested in human aortic endothelial cell cultures; assay type: in vivo; conditions: for HDL-inflammatory index, salicylanilide with D-4F or L-4F: FIG. 24, salicylanilide:peptide 10:1, peptide 5 μg by stomach tube
Procedure: 11-month-old female apoE null mice were fasted during the day. At night the mice were provided chow containing or not containing additions. […] The mice were only given one gram of chow per mouse (n=8 mice per group) so that they would consume all of the chow. In the morning after the chow was consumed the mice were bled and their plasma was sucrose cryopreserved and fractionated by FPLC and the HDL-containing fractions were tested for their ability to inhibit monocyte chemotactic activity induced by a standard control human LDL (A) in cultures of human aortic endothelial cells. The mouse HDL (C-J) was also compared to a standard human HDL (B) that was added at the same concentrations as the mouse HDL. The resulting monocyte chemotactic activity was normalized to the standard control LDL added alone (A). The results are plotted as the HDL-inflammatory index, which is the result of dividing the monocyte chemotactic activity measured for each condition by the monocyte chemotactic activity obtained by the standard control LDL added alone, which was normalized to 1.0 as described previously (Navab et al. (2004) J Lipid Res, 45: 993-1007).
A second experiment was performed as described for the first experiment with 8 mice in each group except that the additions to the chow were different. […] As in the first experiment the mice were only given one gram of chow per mouse so that they would consume all of the chow. In the morning this second group of mice were bled and their HDL tested in the human artery wall cell culture together with the HDL from the first experiment.
L-4F (free base) was diluted with water to give 10 μg per 100 μL of water. […] The mice were fasted and after 7 hours they were bled and their plasma was sucrose cryopreserved. The plasma was fractionated by FPLC and the HDL-containing fractions were tested for their ability to inhibit the induction of monocyte chemotactic activity by a standard control human LDL, which was added to cultures of human aortic endothelial cells. The standard control human LDL was also added by itself or with a standard control human HDL. The values obtained by the standard control human LDL alone were normalized to 1.0. The values obtained after the addition of the standard control HDL or the mouse HDL were compared to the values obtained by the standard control LDL alone to give the HDL Inflammatory Index.
Fasting was continued and the mice were bled 5 hours later and the HDL inflammatory index determined in cultures of human aortic endothelial cells as described in FIG. 8. Briefly, To determine the HDL-inflammatory index lipoproteins were added to human aortic endothelial cell cultures as described previously (Navab et al., (2005) Circulation Research 97: 524-532). A normal control human LDL was added to each well in triplicate at a final concentration of 100 μg/mL of LDL-cholesterol. A normal human HDL was added to three wells containing human LDL at a final concentration of 50 μg/mL HDL-cholesterol as a positive control. HDL from the mice at a final concentration of 50 μg/mL HDL-cholesterol was added in triplicate to other wells containing human LDL. After 8 hours of culture the supernatants were removed and monocyte chemotactic activity was determined as previously described (Navab et al. (2001) J. Lipid Res., 42: 1308-1317; Danciger et al. (2004) J. Immunol. Meth., 288: 123-124). The values obtained from wells containing the human LDL but no HDL were normalized to 1.0. The values obtained from wells containing the human LDL with either human or mouse HDL were divided by the values obtained from wells with human LDL without added HDL to give the HDL-inflammatory index as previously described (Ansell et al. (2003) Circulation 108: 2751-2756).

[2] = tested on: monocyte chemotactic activity in cultures of human aortic endothelial cells; test: LDL-inflammatory index: LDL from treated apoE null mice tested in human aortic endothelial cell cultures; assay type: in vivo; conditions: for LDL-inflammatory index, salicylanilide with D-4F or L-4F: FIG. 25, mice of FIG. 24
Source text: […] to induce monocyte chemotactic activity in cultures of human aortic endothelial cells and compared to a standard control human LDL whose values were normalized to 1.0 for the LDL-inflammatory index.

[3] = mouse, in vivo, po
[4] = tested on: HDL function; conditions: drinking water of apoE null mice for 24 hours; D-4F 1 μg/ml, statin 0.05 mg/ml; related application U.S. Ser. No. 10/423,830; cited from earlier work
[5] = solubilization of niclosamide in water by L-4F; assay type: physicochemical; conditions: FIG. 13; Niclosamide 10 mg per mL in water or water with 1.0 mg/mL L-4F, homogenized, 4° C. ten days
Procedure: The solutions were stored at 4° C. for ten days and photographed (see FIG. 13).

[6] = tested on: aortic sinus lesion area; test: lesion regression in old apoE null mice, six months in chow; assay type: in vivo; conditions: FIGS. 32-34; L-4F 200 μg and niclosamide 2 mg/mouse/day in chow, pravastatin 50 μg/mouse/day, 26 weeks
Source text: Ninety-five female apoE null mice age 9.5 months from the UCLA breeding colony were identified. Twenty-three were sacrificed at time Zero (Group I) to establish lesion area at the start of the experiment. […] All groups received 50 micrograms/mouse/day of pravastatin in their drinking water. At the veterinarian's request because of fighting and/or ulcerative dermatitis mice were euthanized prior to the end of the experiment as follows: 6 mice from Group II; 5 mice from Group III; 4 mice from Group IV. After six months the remaining mice were sacrificed and aortic sinus lesion area was determined as described previously (Id.).
In still another experiments, nine and half months-old female apoE null mice were divided into four groups: Group I was sacrificed to establish base line lesion area (Time Zero). […] Group III received L-4F at 200 μg/mouse/day in rodent chow. […] Groups II-IV received pravastatin 50 μg/mouse/day in drinking water. After 26 weeks the mice were sacrificed and aortic sinus lesion area was determined.

[7] = cited from earlier work
[8] = tested on: atherosclerosis in apoE Null mice; test: atherosclerosis lesions (aortic sinus, en face, macrophage area), 14 weeks in chow; assay type: in vivo; conditions: FIGS. 29-31, L-4F 25 and niclosamide 250 μg/mouse/day in chow, all groups pravastatin 50 μg/mouse/day
[9] = self-association of L-4F in aqueous environment (non-denaturing gel); assay type: physicochemical; conditions: FIG. 39 lane 2
Source text: Lane 1 contains molecular weight markers (HMW).

[10] = tested on: LDL-induced monocyte chemotactic activity in cultures of human aortic endothelial cells; conditions: administered orally to mice; Navab et al. 2002; cited from earlier work
[11] = mouse, in vivo; cited from earlier work
[12] = molecular target: the molecule itself; test: non-denaturing gel (4-20%, coomassie blue), L-4F alone in lane 2; self-association of the peptide
[13] = FIG. 22, peptide 10 μg with or without niclosamide 10:1, ABCT pH 8.0, stomach tube, seven hours

## O=C(Nc1ccc([N+](=O)[O-])cc1Cl)c1ccc(O)c(Cl)c1 [BP-1012]
[1]; six hours
  HDL-inflammatory index, salicylanilide with D-4F or L-4F: more potent than niclosamide
[2]
  LDL-inflammatory index, salicylanilide with D-4F or L-4F: more potent

## Ac-DWFKAFYDKVAEKFKEAF-NH2 [D-4F]
[1]; [13]
  HDL-inflammatory index: able to render apoE null mouse HDL anti-inflammatory to a degree comparable to normal human HDL
[3]
  detectability in the circulation: essentially non-detectable
[4]
  HDL function: did not significantly improve HDL function

## CC(C)c1c(C(=O)Nc2ccccc2)c(-c2ccccc2)c(-c2ccc(F)cc2)n1CC[C@@H](O)C[C@@H](O)CC(=O)O [atorvastatin, reference compound]
[4]
  HDL function: did not improve HDL function

## O=C(Nc1ccc([N+](=O)[O-])cc1Cl)c1cc(Cl)ccc1O [Niclosamide, 5-chloro-N-(2-chloro-4-nitrophenyl)-2-hydroxybenzamide]
[1]; FIG. 16, niclosamide 250 μg/day in chow, L-4F 25 μg/day in drinking water or chow, three days
  enhancement of the ability of L-4F to render HDL anti-inflammatory: greatly enhanced
[2]; FIG. 17, niclosamide 250 μg/day in chow, L-4F 25 μg/day in drinking water or chow, three days
  enhancement of the ability of L-4F to decrease LDL-induced monocyte chemotactic activity: greatly enhanced
[5]
  solubility of niclosamide in aqueous solution: relatively insoluble
[6]
  lesions in old apoE null mice versus Time Zero: neither niclosamide nor L-4F without niclosamide significantly reduced lesions
[7]; at 20° C., ethanolamine salt in distilled water
  water solubility: 5 to 8 µg/mL
[7]
  solubility in acetone: soluble
  solubility in ether, ethanol and chloroform: sparingly soluble
[7]; moist environments
  stability in tablets: undergoes a biodegradation

## O=C(Nc1ccc([N+](=O)[O-])cc1Cl)c1ccc(Cl)cc1O [BP-1001]
[1]; six hours
  HDL-inflammatory index, salicylanilide with D-4F or L-4F: more potent than niclosamide
[2]
  LDL-inflammatory index, salicylanilide with D-4F or L-4F: more potent

## Ac-DWFKAFYDKVAEKFKEAF-NH2 [L-4F, Ac-D-W-F-K-A-F-Y-D-K-V-A-E-K-F-K-E-A-F-NH2]
[1]; FIG. 8, female apoE null mice, additions to 1 g chow overnight: L-4F 2 or 10 μg, Niclosamide 8 or 100 μg
  HDL-inflammatory index: slightly but significantly improved
[1]; [13]
  HDL-inflammatory index: only able to achieve this degree of efficacy when co-administered with niclosamide
[1]; FIG. 37, fractions containing 10 μg L-4F or 10 μg niclosamide in ABCT by stomach tube, six hours
  HDL-inflammatory index: not effective
[8]
  atherosclerosis (aortic sinus lesion, en face, macrophage lesion area): not without niclosamide
[6]
  lesions in old apoE null mice versus Time Zero: neither niclosamide nor L-4F without niclosamide significantly reduced lesions
[9]
  molecular weight of micelles formed by self-association: > 100 kDa
[10]
  protective capacity of HDL to inhibit LDL-induced monocyte chemotactic activity: did not significantly alter
[3]
  detectability in the circulation: essentially non-detectable
[11]
  degradation after oral administration: rapidly degraded

B1: L-4F (Ac-D-W-F-K-A-F-Y-D-K-V-A-E-K-F-K-E-A-F-NH2, all L amino acids) (peptide)
peptide: Ac-DWFKAFYDKVAEKFKEAF-NH2
notes: It self-associates into micelles; also called L-4F (free base)
[12]
  binding result: binds
